pEC50: −log10 of the molar value. Entries after “also recorded” stand apart in the source; their conditions may differ.
What was measured:
[1] = target: T1, ShHTL7 (Striga hermonthica, UniProt A0A0M3PNA2); test: In vitro hydrolysis assay, ShHTL7; assay type: biochemical; details: 10 µM substrate, 50 µg ml^−1 protein, 37 °C, HPLC
T1 sequence (A0A0M3PNA2 1-271): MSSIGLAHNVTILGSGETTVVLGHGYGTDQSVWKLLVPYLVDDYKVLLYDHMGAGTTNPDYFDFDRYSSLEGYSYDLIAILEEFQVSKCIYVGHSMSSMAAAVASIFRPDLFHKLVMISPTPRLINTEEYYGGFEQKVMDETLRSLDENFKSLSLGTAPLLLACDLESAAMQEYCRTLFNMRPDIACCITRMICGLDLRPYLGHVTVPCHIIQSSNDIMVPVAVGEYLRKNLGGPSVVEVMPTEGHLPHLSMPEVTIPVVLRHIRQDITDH
Excerpt: Striga hermonthica ShHTL7 cDNA was used, GenBank accession KR013127, kindly provided by Tsuyoshi Ota, The University of Tokyo, Japan. Arabidopsis D14 (AtD14) cDNA, GenBank accession AY097402, was synthesized and cloned into pUC57 (GenScript). ShHTL7 and OsD14 cDNAs were amplified by RT-PCR using the primers shown in Supplementary Table S2, digested with BamHI and XhoI, and ligated into BamHI/XhoI-digested pGEX-6P-1 expression vector (GE Healthcare). […] The plasmids were then transformed into E. coli BL21 (DE3) cells. The cells were grown in LB broth containing ampicillin ([…]), incubated at 37 °C until OD600 of 0.6 and induced with 0.1 mM isopropyl-β-D-thiogalactopyranoside at 16 °C for 16 h. Harvested cells were resuspended in lysis buffer: 50 mM Tris–HCl (pH 8.0), 200 mM NaCl, 0.5% Tween-20 and 2 mM dithiothreitol (DTT). After sonication on ice for 10 min, the lysate was centrifuged at 75 000 g for 30 min at 4 °C. Supernatant was allowed to bind to glutathione–sepharose beads (GE Healthcare) for 2 h at 4 °C, washed 3 times with buffer (50 mM Tris-HCl (pH 8.0), 200 mM NaCl, 2 mM DTT), and eluted by cleaving the GST moiety with PreScission™ Protease (GE Healthcare) at 4 °C overnight. Eluted protein was further purified by gel filtration using a HiLoad 16/60 Superdex200 prep grade column (GE Healthcare) on an AKTA prime system (GE Healthcare) in gel filtration buffer (10 mM HEPES pH 7.5, 50 mM KCl and 2 mM DTT). […] Purified protein was concentrated using an Amicon 10K filter unit (Merck Millipore) and stored at −80 °C until use. A similar expression and purification protocol was followed for OsD14 protein, except that OsD14 was eluted from glutathione resins using 0.2 mM reduced glutathione (Sigma-Aldrich) without cutting the GST tag.
The hydrolysis of GR24 and MPs by ShHTL7/OsD14 was performed in a total volume of 0.5 ml of phosphate-buffered saline containing 10 µM of substrate. Purified ShHTL7/OsD14 was added at a concentration of 50 µg ml^−1 and incubated for the indicated time at 37 °C. After adding 1-indanol (10 µl of a 2.5 mg ml^−1 solution in methanol), as internal standard, solutions were filtered and transferred to HPLC vials. […] The column was operated at 30 °C with a flow rate of 0.2 ml min^−1. Eluted compounds were detected using a diode array detector. Amounts of remaining substrates were determined by calculating corresponding peaks, in comparison with an internal standard.

[2] = Chemical stability in aqueous solution (UHPLC); assay type: physicochemical; details: aqueous solution pH 6.8, 21 °C, 50 μg ml^−1, monitored at 24 h intervals up to 3 weeks
Procedure: Aqueous solutions of MPs (50 μg ml^−1; pH 6.8) were incubated at 21 °C in amber HPLC vials (adapted from [de Saint Germain et al., 2016]). For sample preparation, 50 μl of an acetone solution (1 mg ml^−1) was diluted to the final concentration with methanol (425 μl), water (500 μl) and 25 μl of 1-indanol (1.0 mg ml^−1 solution in acetone) as internal standard. […] Compounds eluted from the column were detected with a diode array detector. The relative quantity of remaining (non-degraded) product was determined by comparison with the internal standard. Stability was monitored at 24 h intervals up to 3 weeks.

[3] = test system: rice d10 mutant; test: Rice micro tillering bioassay, d10 mutant; assay type: in vivo; details: for pEC50: Oryza sativa, read-out: EC50 for tillering inhibition of the rice d10 mutant
Procedure: Rice seeds (WT, d3, d10) were surface-sterilized by washing with 70% ethanol for 1 min and then with 2.5% sodium hypochlorite for 15 min. Seeds were then rinsed thoroughly with sterile MilliQ water and incubated in water for 2 d at 30 °C in the dark. Pre-germinated seeds were transferred to filter papers containing half-strength MS medium in 90 mm Petri dishes and incubated at 30 °C under fluorescent white light (130–180 μmol m^−2 s^−1) for 1 week. Seven-day-old seedlings were transferred to 50 ml falcon tubes (one seedling per tube) containing modified half-strength Hoagland nutrient solution and grown in greenhouse. Plants were treated with MPs at 2.5 μM to 2.5 × 10^–7 μM, using GR24 as positive control. The compounds were applied six times, twice a week. Number of tillers per plant, plant height and fresh biomass were measured at final harvest.
Statistical analyses were carried out using the statistical software package R (version 3.2.2). Dose–response curves and half-maximum effective concentrations (EC50) were calculated to determine optimum amount of MPs. The synthetic strigolactone analog GR24 was used as reference to estimate efficacy of selected compounds. EC50 and estimated response were calculated using the drc package (https://cran.r-project.org/web/packages/drc/) with a four parameter logistic curve (dose–response curve) ([Ritz and Streibig, 2005]).

[4] = test system: Arabidopsis seedlings; test: Arabidopsis lateral root density; assay type: in vivo; details: 1.0 μM, 8-day-old seedlings
Procedure: Sterilized Arabidopsis seeds were sown on half-strength MS (with 0.5% sucrose+1% agar, 0.5 g l^−1 MES, pH 5.7) plates supplemented with GR24 or MPs (at 1.0 μM). Plates were stored at 4 °C in darkness for 3 d and then vertically grown at 22 °C in a Percival incubator under long day condition (16 h at 22 °C/8 h at 16 °C day/night, 60% relative humidity, 60–70 μmol m^−2 s^−1 white light) for 8 d. For determining the effect on lateral root density and primary root length, at least 30 seedlings were measured using ImageJ software after scanning roots.

COC(=O)/C(=C/OC1C=C(C)C(=O)O1)c1ccccc1 (stereo not drawn) [MP3, (E)-methyl 3-(4-methyl-5-oxo-2,5-dihydrofuran-2-yloxy)-2-phenylacrylate]
hydrolysis rate by ShHTL7 (rank order) [1]: highest hydrolysis rates with MP1, followed by MP7, GR24, and finally MP3
stability in comparison with GR24 [2]: more stable than GR24
growth, senescence symptoms and biomass of rice seedlings ([3]; 2.5 μM): stunted the growth and caused senescence symptoms; also recorded: growth retardation and senescence
pEC50 [3]: 8.53

COC(=O)/C(=C/OC1C=C(C)C(=O)O1)c1ccc(Cl)cc1 (stereo not drawn) [MP7]
hydrolysis rate by ShHTL7 (rank order) [1]: highest hydrolysis rates with MP1, followed by MP7, GR24, and finally MP3
stability in comparison with GR24 [2]: more stable than GR24
reduction of lateral root number/density [4]: slightly more active than GR24
pEC50 [3]: 7.60

COC(=O)/C(=C/OC1C=C(C)C(=O)O1)c1ccc([N+](=O)[O-])cc1 (stereo not drawn) [MP1, (E)-methyl 3-(4-methyl-5-oxo-2,5-dihydrofuran-2-yloxy)-2-(4-nitrophenyl)acrylate]
hydrolysis rate by ShHTL7 (rank order) [1]: highest hydrolysis rates with MP1, followed by MP7, GR24, and finally MP3
stability in comparison with GR24 [2]: slightly less stable than GR24
reduction of lateral root number/density [4]: most efficient compound and showed an activity higher than that of GR24
pEC50 [3]: 6.62

CC1=CC(OC=C2C(=O)OC3c4ccccc4CC23)OC1=O (stereo not drawn) [GR24, reference compound]
hydrolysis rate by ShHTL7 (rank order) [1]: highest hydrolysis rates with MP1, followed by MP7, GR24, and finally MP3
number of tillers per plant, d10 mutant ([3]; 2.5 μM, hydroponic culture, Mock four tillers per plant): one
pEC50 [3]: 7.32

Reference: PMC5913645, “Methyl phenlactonoates are efficient strigolactone analogs with simple structure” (Journal of Experimental Botany, 2017)
